The text below walks through data of patent US20060025430A1, “Novel irreversible inhibitors of epidermal growth factor receptor tyrosine kinase and uses thereof for therapy and diagnosis” (priority 2003, published 2006).

Data set [1] addresses T1, EGFR-TK (Homo sapiens, UniProt P00533).
T1 construct: The supernatant, which contained the EGFR, was collected and frozen; endogenous in cells; host or cells: A431 cells (A1: Triton X-100 lysate captured on mAb108; A2: intact cells)
In words: EGFR-TK autophosphorylation inhibition in A431 cell lysate (ELISA). Type of data set: biochemical. The note with it: read-out: A431 lysate IC50 app. As to the method:
All the following incubations were performed at room temperature and with constant shaking. […] The final volume for each well was 150 μl.
In this step the temperature was kept at 26° C. and the plate was under constant shaking. The incubation with ATP/MnCl2 was for 5 minutes.
Afterward, polyclonal anti-phosphotyrosine serum (Sugen, Inc.) was added (dilution of antibody in TBST containing 5% milk). The incubation was for 45 minutes.

Data set [2] deals with T1, EGFR-TK. Nature of the data set: EGFR-TK autophosphorylation inhibition in intact A431 cells (irreversibility assay, Western blot). It is filed as cell-based. As to conditions: for nature of binding to the receptor (irreversibility): intact A431 cells, inhibition 8 hours post incubation. On the procedure:
A431 cells (5×10^5) were seeded in 6-well plates and grown for 24 hours to about 90% confluence in DMEM (high glucose) containing 10% fetal calf serum (FCS) and antibiotics at 37° C. The cells were then exposed to serum-free medium, at 37° C., for 18 hours.
[…] The medium was replaced thereafter with an inhibitor/FCS-free medium and the cells were divided into two groups: cells of the first group were immediately stimulated with EGF (20 ng/ml) for 5 minutes and then washed with PBS, while cells of the second group were incubated for additional 8 hours, at 37° C. During the 8 hours period, the medium was changed three times (after 2, 4 and 8 hours). After the post-incubation period, the cells of the second group were stimulated with EGF (20 ng/ml) for 5 minutes and then washed with PBS.
Identical protein amounts from each lysate sample were loaded onto polyacrylamide gel (6% or 10%), separated by electrophoresis (Hoefer Pharmacia Biotech Inc., San Francisco, USA) and transferred to nitrocellulose membrane (power supply: EPS 500/400, Amersham Pharmacia Biotech; nitrocellulose extra blotting membranes: Sartorius AG, Goettingen, Germany). A standard high molecular weight solution was loaded as a reference. For visualization of molecular weight bands, the membrane was immersed in Ponceau reagent (0.05% Ponceau, 5% acetic acid) for a few minutes, and then washed twice with TTN (10 mM Tris pH 7.4, 0.2% TWEEN 20, 170 mM NaCl) and once with water. The membrane was blocked overnight in TTN containing 5% milk (1% fat) (blocking TTN) and incubated for 90 minutes with PY20 antiphosphotyrosine antibody (Santa Cruz Biotechnology Inc., Santa Cruz, USA) diluted 1:2,000 in blocking TTN. The membrane was then washed with TTN (3×5 minutes), incubated for 90 minutes with a horseradish peroxidase-conjugated secondary antibody (Goat anti-mouse IgG H+L, Jackson ImResearch Laboratories, Inc., diluted 1:10,000 in blocking TTN), and finally washed again with TTN (3×5 minutes).
After the incubation, the media was replaced with inhibitor/FCS-free media and the inhibition effect was measured either immediately thereafter or after 8 hours post incubation.

Data set [3] in a line: Challenge reaction with reduced glutathione (HPLC conversion to conjugates). Type of data set: physicochemical. As to the method:
Standard solutions were prepared by dissolving compound 5, Compound 6 and {4-[(3,4-dichloro-6-fluorophenyl)amino]quinazol ine-6-yl}acrylamide (0.0146 mmol) in 1.75 ml of THF: MeOH (1:2) and glutathione (18 mg, 0.0586 mmol) in 0.5 ml of water. A 300 μL aliquot of the quinazoline standard solution (2.5 μmol) was diluted with 689 μL of THF:MeOH:H2O (1:2:1), after which 11 μL (1.25 μmol) of glutathione solution and 5.22 μL (30 μmol) of N,N′-diisopropylethylamine were added. Conversions of the quinazolines and formation of conjugates at different time points were measured by HPLC using RP (3.9×300 mm) column (mobile phase of acetonirile and acetate buffer 0.1 M (2:3) at a flow rate of 1 ml/min was used herein). The glutathione conjugates were further detected by MS.
As discussed hereinabove, EGFR blockade by irreversible inhibitors is due to the nucleophilic attack of the sulfhydryl group of Cys-773 at the receptor's ATP binding pocket on the reactive chemical group of the EGFR targeted inhibitor. In order to evaluate the chemical reactivity of the novel irreversibly EGFR inhibitors decribed herein, the degree of reactivity of the inhibitors towards the sulfhydryl group of reduced glutathione (GSH) as a nucleophile was tested. Thus, Compound 5, Compound 6 and {4-[(3,4-dichloro-6-fluorophenyl)amino]quinazoline-6-yl}acrylamide were dissolved in THF: MeOH: H2O (1:2:1), and were reacted at room temperature with half an equivalent of reduced glutathione in the presence of 12 equivalents of N,N-diisopropylethylamine. Identical aliquots of the reaction mixtures were taken at various time points and injected into reversed-phase HPLC in order to determine the conversion-rate of the various compounds into glutathione-conjugates. The characteristics of the products were determined using MS.
A study of the reaction rate as a function of the temperature was also performed. Thus, the reaction ws performed at various temperatures ranging from 0° C. and 60° C. The following activation parameters were generated: For {4-[(3,4-dichloro-6-fluorophenyl)amino]quinazoline-6-yl}acrylamide: Ea=5.24 kCalmol^−1, ΔH^#25° C.=4.64 kCalmol^−1 and ΔS^#25° C.=−61.24 Calmol^−1K^−1. For compound 5: Ea=11.4 kCalmol^−1, ΔH^#25° C.=10.80 kCalmol^−1 and ΔS^#25° C.=−41.29 Calmol^−1K^−1.
The reaction rate was calculated using the following rate equation: [formula] kobs=Ae^−Ea/RT

The target of the next data set is PDGFR (Homo sapiens, UniProt P09619). In words: Selective-inhibition assay in […] cells (receptor phosphotyrosine, Western blot). Type of data set: cell-based. As to conditions: […] cells expressing PDGFR, 1 hour incubation, PDGFββ stimulation. As to the method:
(§1) NIH3T3 cells transformed with either the EGFR (DHER14 cells), with the HER1-HER2 chimera (CSH12 cells) or with the PDGFR (NIH/PDGFR cells), decribed by Lee et al.; 1989, Honegger et al., 1988; and Shawver et al. 1997, and A431 human epidermoid vulval carcinoma cells were grown in Dulbecco's modified Eagle's medium (DMEM) (Biological industries, Kibbuts Beit Haemek, Israel) supplemented with 10% fetal calf serum and antibiotics (penicillin […], streptomycin 100 mg/liter) at 37° C. in 5% CO2.
(§2) Selective-inhibition assay: CSH12, DHER14 and […] cells, expressing either the HER1-HER2 chimera, EGFR or PDGFR, respectively, were used for the determination of inhibitory selectivity. Cells (7.5×10^4) were grown in 6-well plates (35 mm diameter, Nalge Nunc) for 24 hours and then incubated in 0.25% FCS-containing medium for an additional 24 hours to about 90% confluence. Duplicate sets of cells were treated with the tested compounds at varying concentrations for 1 hour. The final concentration of the vehicle in the medium was 0.05% DMSO, 0.1% EtOH. After removal of the inhibitor from the medium, PBS wash (×2) and addition of 0.25% serum-containing medium to the wells, the cells were stimulated with either 20 ng/mL human EGF for 5 minutes (CSH12 and DHER14 cells) or 50 ng/ml human PDGFββ for 10 minutes ([…] cells) at 37° C. […]

Data set [4] can be described thus: Challenge reaction with reduced glutathione (HPLC conversion to conjugates). Type of data set: physicochemical. As to conditions: even at temperatures exceeding 100° C.
The target in a further data set is T2, EGFR (Homo sapiens, UniProt P00533).
T2 construct: expressed in transfected cells; host or cells: NIH3T3 (DHER14 cells)
In words: Selective-inhibition assay in DHER14 cells (receptor phosphotyrosine, Western blot). It is filed as cell-based. The note with it: DHER14 cells expressing EGFR, 1 hour incubation, EGF stimulation. On the procedure: as §1, §2

The mark [5] stands for this setting: Intact A431 cells IC50 range (1 hr post incubation with inhibitor), 1 hour incubation with inhibitor, medium replaced, EGF stimulation immediately.
Where [6] appears, read: Intact A431 cells IC50 range (8 hr post incubation with inhibitor), 1 hour incubation, then 8 hours in inhibitor-free medium before EGF stimulation.

Molecules are shown by their SMILES. Entries after “also recorded” stand apart in the source; their conditions may differ.

T1 sequence (P00533 25-1210): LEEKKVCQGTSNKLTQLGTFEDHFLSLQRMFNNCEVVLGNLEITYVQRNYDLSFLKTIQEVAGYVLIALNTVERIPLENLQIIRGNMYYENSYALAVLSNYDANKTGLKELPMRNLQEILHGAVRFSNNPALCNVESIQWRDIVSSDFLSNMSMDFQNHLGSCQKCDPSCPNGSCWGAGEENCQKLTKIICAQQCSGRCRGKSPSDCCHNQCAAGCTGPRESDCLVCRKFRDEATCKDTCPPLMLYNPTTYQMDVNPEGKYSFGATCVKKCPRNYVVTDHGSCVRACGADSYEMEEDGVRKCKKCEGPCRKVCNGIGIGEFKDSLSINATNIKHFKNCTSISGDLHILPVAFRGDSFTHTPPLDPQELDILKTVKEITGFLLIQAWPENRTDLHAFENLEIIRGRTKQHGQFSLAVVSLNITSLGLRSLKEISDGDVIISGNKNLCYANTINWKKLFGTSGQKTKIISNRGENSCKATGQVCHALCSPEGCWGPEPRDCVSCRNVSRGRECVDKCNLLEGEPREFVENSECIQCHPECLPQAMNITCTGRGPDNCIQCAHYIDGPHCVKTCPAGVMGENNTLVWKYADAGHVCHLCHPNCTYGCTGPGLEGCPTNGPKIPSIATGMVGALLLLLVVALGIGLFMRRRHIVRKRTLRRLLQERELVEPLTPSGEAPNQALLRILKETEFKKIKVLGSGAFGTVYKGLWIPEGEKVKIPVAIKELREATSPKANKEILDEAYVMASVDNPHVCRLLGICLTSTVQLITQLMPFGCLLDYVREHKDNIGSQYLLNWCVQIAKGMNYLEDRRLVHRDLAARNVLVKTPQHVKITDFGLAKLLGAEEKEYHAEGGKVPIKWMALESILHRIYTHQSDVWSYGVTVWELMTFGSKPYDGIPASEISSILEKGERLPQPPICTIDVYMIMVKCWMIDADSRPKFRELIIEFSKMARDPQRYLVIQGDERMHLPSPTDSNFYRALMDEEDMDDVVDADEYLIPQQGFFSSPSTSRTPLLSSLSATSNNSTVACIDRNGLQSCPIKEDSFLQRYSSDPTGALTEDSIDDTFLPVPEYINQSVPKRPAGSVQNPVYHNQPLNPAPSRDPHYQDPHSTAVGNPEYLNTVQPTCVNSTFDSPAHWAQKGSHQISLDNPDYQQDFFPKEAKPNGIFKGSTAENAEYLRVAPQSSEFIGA
T2 sequence (P00533 25-1210): as above
PDGFR, sequence (P09619 whole entry): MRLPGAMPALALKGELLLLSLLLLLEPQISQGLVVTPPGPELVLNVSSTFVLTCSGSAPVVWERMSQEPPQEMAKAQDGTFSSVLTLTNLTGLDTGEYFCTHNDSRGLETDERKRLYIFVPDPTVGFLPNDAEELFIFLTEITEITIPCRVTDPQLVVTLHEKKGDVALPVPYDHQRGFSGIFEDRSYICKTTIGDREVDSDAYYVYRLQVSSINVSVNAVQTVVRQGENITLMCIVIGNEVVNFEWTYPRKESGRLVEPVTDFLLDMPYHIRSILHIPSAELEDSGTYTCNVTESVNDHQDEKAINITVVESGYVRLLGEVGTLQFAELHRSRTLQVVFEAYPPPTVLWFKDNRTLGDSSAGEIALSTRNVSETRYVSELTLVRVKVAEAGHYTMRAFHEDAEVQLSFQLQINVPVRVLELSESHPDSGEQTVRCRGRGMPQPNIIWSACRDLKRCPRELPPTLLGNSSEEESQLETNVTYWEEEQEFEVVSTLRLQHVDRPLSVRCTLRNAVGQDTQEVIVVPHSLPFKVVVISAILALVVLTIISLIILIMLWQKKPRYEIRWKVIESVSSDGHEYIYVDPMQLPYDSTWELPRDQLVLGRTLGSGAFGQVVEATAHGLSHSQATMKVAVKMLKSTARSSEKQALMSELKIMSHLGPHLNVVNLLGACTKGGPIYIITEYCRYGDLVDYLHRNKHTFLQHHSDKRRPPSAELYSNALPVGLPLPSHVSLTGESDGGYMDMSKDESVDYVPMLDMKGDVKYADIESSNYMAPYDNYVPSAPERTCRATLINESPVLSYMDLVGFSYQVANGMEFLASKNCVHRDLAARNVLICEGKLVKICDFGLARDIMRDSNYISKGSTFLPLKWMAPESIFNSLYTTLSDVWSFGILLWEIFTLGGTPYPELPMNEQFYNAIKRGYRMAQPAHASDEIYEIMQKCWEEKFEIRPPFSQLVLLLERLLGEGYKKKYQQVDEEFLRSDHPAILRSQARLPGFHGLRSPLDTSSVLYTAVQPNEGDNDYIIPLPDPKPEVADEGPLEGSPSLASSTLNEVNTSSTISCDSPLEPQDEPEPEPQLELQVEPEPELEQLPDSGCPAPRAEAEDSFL

In the case of `COCC(=O)Nc1ccc2ncnc(Nc3cccc(Br)c3)c2c1` [Compound 2, N-{4-[(3-bromophenyl)amino]-quinazolin-6-yl}-2-methoxyacetamide], the melting point is 190 to 191 °C.
As for `O=C(CCl)Nc1ccc2ncnc(Nc3cc(Cl)c(Cl)cc3F)c2c1` [drawing 19], the IC50 on EGFR-TK [1] was 5.55 nM; at EGFR-TK [2] (setting [5]) it was 1 to 20 nM; against EGFR-TK [2] (setting [6]), 1 to 20 nM.
Regarding `COCC(=O)Nc1ccc2ncnc(Nc3cccc(I)c3)c2c1` [Compound 4, N-{4-[(3-iodophenyl)amino]-quinazolin-6-yl}-2-methoxyacetamide], on EGFR-TK [2], the “nature of binding to the receptor (irreversibility)” value is given as “partial irreversible”.
In the case of `COCC(=O)Nc1ccc2ncnc(Nc3cc(Cl)c(Cl)cc3F)c2c1` [drawing 20], the IC50 was 113 nM on EGFR-TK [1] and 10000 to 50000 nM on EGFR-TK [2] (setting [6]).
`COCC(=O)Nc1ccc2ncnc(Nc3cccc(I)c3)c2c1` [drawing 18]: the IC50 was 65 nM on EGFR-TK [1], 1000 to 20000 nM on EGFR-TK [2] (setting [5]) and over 80000 nM against EGFR-TK [2] (setting [6]).
With `C=CC(=O)Nc1ccc2ncnc(Nc3cc(Cl)c(Cl)cc3F)c2c1` [drawing 14], the IC50 at EGFR-TK [1] (apparent IC50, ELISA, 5 μM ATP/5 mM MnCl2, average of four dose-response curves) is 0.037 nM; against EGFR-TK [2] (setting [5]), 5 to 50 nM; against EGFR-TK [2] (setting [6]) it was 5 to 50 nM.
`C=CC(=O)Nc1ccc2ncnc(Nc3cc(Cl)c(Cl)cc3F)c2c1` [Compound A, N-{4-[(3,4-dichloro-6-fluorophenyl)amino]quinazoline-6-yl}acrylamide, reference compound]: in data set [3] (25° C.), the “ΔH^# 25° C. of reaction with reduced glutathione” value was 4.64 kCalmol^−1 and the “ΔS^# 25° C. of reaction with reduced glutathione” value is given as −61.24 Calmol^−1K^−1. Further, in data set [3] (room temperature, THF:MeOH:H2O (1:2:1), half an equivalent GSH, 12 equivalents N,N-diisopropylethylamine), the “reaction rate constant with reduced glutathione” value stood at 0.0001 M/min. Besides, in data set [3] (temperatures from 0° C. to 60° C.), the “activation energy Ea of reaction with reduced glutathione” value is listed as 5.24 kCalmol^−1.
As for `COCC(=O)Nc1ccc2ncnc(Nc3cc(Cl)c(Cl)cc3F)c2c1` [Compound 6, N-{4-[(4,5-Dichloro-2-fluoro-phenyl)amino]-quinazolin-6-yl}-2-methoxyacetamide], the melting point was in the range of 204 to 206 °C. Further, on EGFR-TK [2], the “nature of binding to the receptor (irreversibility)” value is reported as “partial irreversible”. In addition, the 50% inhibitory concentration (IC50) on PDGFR was over 1000 nM. In addition, in data set [4], the “change in the reaction rate with GSH with temperature” value is recorded as “no change in the reaction rate; also recorded: could not be detected”. At EGFR, this compound yielded an IC50 of over 250 nM.
For the compound `O=C(CCl)Nc1ccc2ncnc(Nc3cccc(Br)c3)c2c1` [Compound 1, N-{4-[(3-bromophenyl)amino]-quinazolin-6-yl}-2-chloroacetamide], the melting point is over 300 °C.
On the same count and under the same terms, for `O=C(CCl)Nc1ccc2ncnc(Nc3cccc(I)c3)c2c1` [Compound 3, N-{4-[(3-iodophenyl)amino]-quinazolin-6-yl}-2-chloroacetamide] the value was over 300 °C.
